From patent US20220160812A1, “A PHARMACEUTICALLY ACTIVE SUBSTANCE” (Cytopharma GmbH, priority 2019, published 2022)
“Also recorded” adds a separate entry of the source. Non-standard residues stand in square brackets, D forms with d. Residues, ends and D or L forms follow the SMILES beside them.

How the values were obtained:
[1] = test system: human peripheral blood mononuclear cells (Lymphocyte, PBMC); assay: cell vitality FACS analysis (region R-1), healthy lymphocytes (PBMC); format: cell-based; settings: Protocol A, 50, 100, 200 μM, about 24 hours per Examples (FIG. 11 legend: about 2 hours)
Method: Human lymphocytes are obtained as peripheral blood mononuclear cells (“PBMC”) from whole blood. For this purpose, 15 ml of heparinized whole blood (heparin tube, Sarstedt) were layered on 15 ml Biocoll in LeucoSep tubes and obtained by centrifugation (10 min at 120 g) as the top layer (“lymphocytes”) and so separated from other cells. For induction with peptides, 1×10^6 lymphocytes are seeded into each well of the 48-well plates.
After addition of the peptides diluted in culture medium to the cells (MEC-1 or lymphocytes) in the respective cavity, the cells are cultured for 2 to 4 hours at 37 degrees Celsius and 5% CO2. The cell suspension is centrifuged in centrifuge tubes at 120 g, the cells are suspended in 500 μl serum-free culture medium, then 1.5 ml of cold 80% ethanol (ethanol/PBS-80/20, v/v; stored at −20 degrees Celsius) is added, the FACS tubes sealed and stored at −20 degrees Celsius for a maximum of 18 h. The cells are centrifuged for 5 min at 120 g and suspended in 2 ml PBS, then incubated for 30 min at 37 degrees Celsius. After renewed centrifugation, the cells are suspended in 0.5 ml DAPI solution and incubated for 15 min at 20 degrees Celsius in the dark. Thereafter, the cells are stored dark for a maximum of four hours in an ice bath, then the FACS analysis.
(§1) To transfer adherent cells (A375 and BxPC-3 cells) after culture, cells are washed twice with PBS. To detach the cells, the enzyme biotase is used according to the manufacturer's instructions. For this purpose, after washing with PBS, the cells are mixed with biotase (5 ml of biotase solution per 75 cm^2 surface of the cell culture bottles) and incubated for 5 min at 37 degrees Celsius, and the biotase is separated by centrifugation. Cells cultivated in suspension (MEC-1 and lymphocytes) were transferred by dilution. The cells are suspended in culture medium and counted, each time 1.5×10^5 cells/cm^2 are seeded in 48-well plates and cultured for between 1.5 and 24 hours at 37 degrees Celsius, 5% CO2. Peptides are pre-diluted from stock solution with culture medium and 200 μl of peptide solution added so that final concentrations of 30 to 500 μM peptide are present in at most 1% (v/v) DMSO. As control solutions, culture medium without peptide (DMSO-containing) in culture medium or etoposide solution is added. After incubating the cells for several hours, the cell supernatant is transferred to a FACS tube for each batch and, after washing the cells with PBS, the wash solution is added. Then the cells are incubated with 200 μl of biotase solution for 10 min, 37° C., the cells with the biotase are also transferred to the FACS tube and the cells are collected by centrifugation for 5 min. The cell pellet is suspended in 500 μl of serum-free culture medium, then 1.5 ml of cold 80% ethanol (ethanol/PBS-80/20, v/v, stored at −20° C.) is added, the FACS tubes sealed and stored at −20 degrees Celsius for 15 to 18 h. Thereafter, the cells are centrifuged for 5 minutes at 120 g, suspended after removal of the supernatant in 2 ml PBS and incubated at 37 degrees Celsius for 30 minutes. After re-centrifugation, the cells are suspended in 0.5 ml DAPI solution and incubated for 15 min at 20 degrees Celsius in the dark. Thereafter, the cells are stored dark for a maximum of four hours in an ice bath, followed by the FACS analysis.
Changes of the cell form during cell death by apoptosis are documented in the literature (Lizard et al. 1995; Taga et al. 2000; Vermes et al., 2000). The protocols for cell cultivation, treatment and preparation of the cells before flow cytometry is detailed in separate examples. Cell suspensions of cell lines A375, BxPC-3, MEC-1 or of primary lymphocytes (see separate example of lymphocyte preparation) are analyzed by flow cytometry. The data are further analyzed by using the program “Flowing Software 2”. The data of light scattering are drawn in a two-dimensional FSC/SSC plot. […]

A375 melanoma cells = assay: cell vitality FACS analysis (region R-1, FSC/SSC), A375 melanoma cells; format: cell-based, human; settings: A375, Protocol A, about 24 hours, FIG. 7
Method: as §1
For suspension cells (MEC-1 and lymphocytes/PBMC) and for adherent cells analyzed according to Protocol A, FACS analysis to determine subG1 cell cycle and vital cell fractions was done on a Becton Dickinson LSR Fortessa flow cytometer. The analysis by FACS including subG1 and vital cell analysis according to protocol B was performed with a Cytomics FC 500 MPL flow cytometer from Beckman Coulter.
Changes of the cell form during cell death by apoptosis are documented in the literature (Lizard et al. 1995; Taga et al. 2000; Vermes et al., 2000). The protocols for cell cultivation, treatment and preparation of the cells before flow cytometry is detailed in separate examples. Cell suspensions of cell lines A375, BxPC-3, MEC-1 or of primary lymphocytes (see separate example of lymphocyte preparation) are analyzed by flow cytometry. The data are further analyzed by using the program “Flowing Software 2”. The data of light scattering are drawn in a two-dimensional FSC/SSC plot. Since the position in the FSC/SSC plot of apoptotic cells changes relative to non-apoptotic cells (Vermes et al., 2000), a region (R-1) is drawn representing mainly non-apoptotic cells and excluding cells with both low FSC and low SSC values and excluding cells with high values of FSC and/or SSC (FIG. 1). The regions are individually selected for each cell type (A375, BxPC-3, MEC-1 and primary lymphocytes). The percentage of untreated non-apoptotic cells in the region R-1 relative to total cells is set to 100%, representing 100% vital cells. The fraction (%) of cells in R-1 relative to the total number of cells in case of cell treatment by certain peptides or by cytotoxic drugs results in cell vitality, below 100%, thereby indicating a loss of cell vitality by the treatment. […]

Row | Compound | tolerance by healthy Lymphocyte (PBMC) cells (cell vitality) [1] | other results
1 | CSCC[C@@H](NC(=O)[C@@H](Cc1c[nH]c2ccccc12)NC(=O)[C@@H](CCCCN)NC(=O)[C@H](N)CCCCN)C(=O)N[C@@H](C(=O)N[C@@H](C(=O)N[C@H](Cc1ccc(O)cc1)C(=O)N[C@H](Cc1ccccc1)C(=O)N[C@H](CCCNC(=N)N)C(=O)N[C@H](CCCCN)C(=O)N[C@H](CO)C(=O)N[C@H](CO)C(=O)N[C@H](CCCNC(=N)N)C(=O)O)C(C)C)C(C)C [SEQID No 30, k-k-w-m-v-v-y-f-r-k-s-s-r] (H-[dK][dK][dW][dM][dV][dV][dY][dF][dR][dK][dS][dS][dR]-OH; N-terminus and C-terminus assumed) | well tolerated | tolerance by healthy Lymphocyte (PBMC) cells (cell vitality) ([1]; listed as SEQID NO 30): not remarkably damaged
2 | CSCC[C@@H](NC(=O)[C@@H](Cc1c[nH]c2ccccc12)NC(=O)[C@@H](CCCCN)NC(=O)[C@@H](CCCCN)NC(=O)[C@@H](CO)NC(=O)[C@@H](CCCNC(=N)N)NC(=O)[C@H](N)CCC(=O)O)C(=O)N[C@@H](C(=O)N[C@@H](C(=O)N[C@H](Cc1ccc(O)cc1)C(=O)N[C@H](Cc1ccccc1)C(=O)N[C@H](CCCNC(=N)N)C(=O)N[C@H](CCCCN)C(=O)O)C(C)C)C(C)C [SEQID No 31, e-r-s-k-k-w-m-v-v-y-f-r-k] (H-[dE][dR][dS][dK][dK][dW][dM][dV][dV][dY][dF][dR][dK]-OH; N-terminus and C-terminus assumed) | not remarkably damaged | –
3 | CSCC[C@@H](NC(=O)[C@@H](Cc1c[nH]c2ccccc12)NC(=O)[C@@H](CCCCN)NC(=O)[C@H](N)CCCCN)C(=O)N[C@@H](C(=O)N[C@@H](C(=O)N[C@H](Cc1ccc(O)cc1)C(=O)N[C@H](Cc1ccccc1)C(=O)N[C@H](CCCNC(=N)N)C(=O)O)C(C)C)C(C)C [SEQID No 25, k-k-w-m-v-v-y-f-r] (H-[dK][dK][dW][dM][dV][dV][dY][dF][dR]-OH; N-terminus and C-terminus assumed) | not so well tolerated by the healthy cells | –
4 | CSCC[C@@H](NC(=O)[C@@H](Cc1c[nH]c2ccccc12)NC(=O)[C@H](N)CCCCN)C(=O)N[C@@H](C(=O)N[C@@H](C(=O)N[C@H](Cc1ccc(O)cc1)C(=O)N[C@H](Cc1ccccc1)C(=O)N[C@H](CCCNC(=N)N)C(=O)N[C@H](CCCCN)C(=O)O)C(C)C)C(C)C [SEQID No 26, k-w-m-v-v-y-f-r-k] (H-[dK][dW][dM][dV][dV][dY][dF][dR][dK]-OH; N-terminus and C-terminus assumed) | not so well tolerated by the healthy cells | –
5 | d-k-w-m-v-v-y-f-r-d [SEQID No 39] | – | decrease of cell vitality, comparison in words (A375 melanoma cells; 100 μM): higher apoptosis rate at a concentration of 100 μM as peptide SEQID NO 27; decrease of cell vitality, comparison in words (A375 melanoma cells; any concentration (100, 200, 500 μM)): significantly greater decrease than the peptide of the prior art (Peptide SEQ C1)
6 | CSCC[C@@H](NC(=O)[C@@H](Cc1c[nH]c2ccccc12)NC(=O)[C@@H](CCCCN)NC(=O)[C@H](N)CCCCN)C(=O)N[C@@H](C(=O)N[C@@H](C(=O)N[C@H](Cc1ccc(O)cc1)C(=O)N[C@H](Cc1ccccc1)C(=O)N[C@H](CCCNC(=N)N)C(=O)N[C@H](CCCCN)C(=O)O)C(C)C)C(C)C [SEQID No 27, k-k-w-m-v-v-y-f-r-k] (H-[dK][dK][dW][dM][dV][dV][dY][dF][dR][dK]-OH; N-terminus and C-terminus assumed) | not remarkably damaged; also recorded: very good tolerated by the healthy cells (low toxic effect) | –
7 | CSCC[C@@H](NC(=O)[C@@H](Cc1c[nH]c2ccccc12)NC(=O)[C@@H](CCCCN)NC(=O)[C@H](N)CCCCN)C(=O)N[C@@H](C(=O)N[C@@H](C(=O)N[C@H](Cc1ccc(O)cc1)C(=O)N[C@H](Cc1ccccc1)C(=O)N[C@H](CCCNC(=N)N)C(=O)N[C@H](CCCCN)C(=O)N[C@H](CCC(=O)O)C(=O)N[C@H](C)C(=O)N[C@H](CCCNC(=N)N)C(=O)O)C(C)C)C(C)C [SEQID No 32, k-k-w-m-v-v-y-f-r-k-e-a-r] (H-[dK][dK][dW][dM][dV][dV][dY][dF][dR][dK][dE][dA][dR]-OH; N-terminus and C-terminus assumed) | not remarkably damaged | –
8 | CSCC[C@@H](NC(=O)[C@@H](Cc1c[nH]c2ccccc12)NC(=O)[C@@H](CCCCN)NC(=O)[C@@H](CCCCN)NC(=O)[C@H](NC(=O)[C@@H](CO)NC(=O)[C@H](N)CCCNC(=N)N)[C@H](C)O)C(=O)N[C@@H](C(=O)N[C@@H](C(=O)N[C@H](Cc1ccc(O)cc1)C(=O)N[C@H](Cc1ccccc1)C(=O)N[C@H](CCCNC(=N)N)C(=O)N[C@H](CCCCN)C(=O)O)C(C)C)C(C)C [SEQID No 33, r-s-t-k-k-w-m-v-v-y-f-r-k] (H-[dR][dS][dT][dK][dK][dW][dM][dV][dV][dY][dF][dR][dK]-OH; N-terminus and C-terminus assumed) | not remarkably damaged; also recorded: well tolerated | –
